These results are taken from patent US5674697A, “High sensitivity immunoassay for polychlorinated dibenzo-p-dioxins and polychlorinated dibenzofurans” (priority 1995, dated 1997).

For one data set, the system named is DD-3 antibody. Briefly: Direct competitive EIA with immobilized DD-3 monoclonal antibody and competitor-HRP conjugate. Format: binding, mouse. The note with it: for Assay sensitivity compared with the Hapten I enzyme conjugate based assay: analyte 2,3,7,8-TCDD; for Assay sensitivity compared with the Hapten I enzyme conjugate based assay / I50 (pg/well) / I85 (mdl, pg/well): DD-3 antibody; for I50 (pg/well) / I85 (mdl, pg/well): analyte 2,3,7,8-tetrachlorodibenzo-p-dioxin, listed competitor as HRP conjugate. From the text: Antibodies can be readily prepared by standard methods. […] M. Vanderlaan, et al., U.S. Pat. No. 4,798,807 (1989).
The competitors A-F (FIG. 2) and Hapten I (FIG. 1) were conjugated to the enzyme, amino modified Horseradish Peroxidase (HRP) (horseradish peroxidase commercially available from Sigma Chemical Co. (No. P-6782), St. Louis, Mo.; amino modified per R. Hsiao and H. Royer, Archives Biochem. Biophys., 198, 379-385 (1979) to give 6-24 free amines), using the carbodiimide mediated carboxyl activation procedure described in Example 7. Hapten and competitor load were determined by UV/Vis spectroscopy, also as described in Example 7.
The direct EIA (immobilized antibody and competitor enzyme conjugate) was performed as follows. Monoclonal antibody supernatant stored at -20° C. was diluted 1,000-40,000 fold with PBS which contained 0.1% Tween-20. This solution was dispensed (500 ul) into donkey anti-mouse second antibody coated tubes (DAM Tubes commercially available from Millipore Corp., Bedford, Mass.) and incubated at room temperature overnight. The antisera solution was decanted from the tubes and the tubes washed 3 times with distilled water. Non-specific sites in the tubes were blocked with 600 ul of BSA blocking buffer (EIA Blocking Buffer commercially available from Millipore Corp., Bedford, Mass.) and incubated for 2 hours at room temperature or overnight at 4° C. The blocking buffer was decanted and the tubes allowed to dry under ambient room conditions for at least 2 hours. The assay was performed by adding 500 ul of assay diluent (1% methanol (v/v) and 0.005% Tween-20 (w/v) in distilled water) to the required number of tubes followed by 10 ul of a methanol solution of the analyte (PCDD or PCDF). After a 5 minute incubation at room temperature, the solution was decanted and the tubes rinsed 3-4 times with tap water. The horseradish peroxidase competitor or Hapten I conjugates were diluted 1,000-60,000 fold from 2-5 mg/ml stock solutions in PBS with conjugate diluent (Enzyme Conjugate Diluent commercially available from Millipore Corp., Bedford, Mass.). The enzyme conjugate (200 ul) was added to the tubes followed by a 5 minute incubation at room temperature. The conjugate solution was decanted and the tubes rinsed 3-4 times with tap water. Enzyme substrate solution (500 ul, KPL No. 50-76-04 commercially available from KPL Laboratories, Gaithersburg, Md.) was added and the tubes were incubated at room temperature for 5-15 minutes. The enzyme reaction was stopped with the addition of 500 ul of 1N HCl. The OD of the solution was determined at 450 nm. The data was plotted using Log (Congener Concentration) versus B/Bo (B=Sample Absorbance, Bo=Sample Blank Absorbance).

For data set [1] the following is noted: cited from earlier work; for TEF* (toxic equivalency factor): Table II, congeners of the TEF Mixture native standard.
Where [2] appears, read: most toxic PCDD/PCDF congeners, reference 2,3,7,8-TCDD = 1.0, S. Safe 1990.
Setting [3] is: toxicity relative to 2,3,7,8-TCDD.
The mark [4] stands for this setting: analyte 2,3,7,8-tetrachlorodibenzofuran, DD-3 and Competitor F.

Like-named read-outs stand apart in the source and are kept apart here.

As to `O=C(O)CCCCc1cc(Cl)ccc1Cl` [Competitor A, 5-(2,5-dichlorophenyl)pentanoic acid], in the data set with DD-3 antibody, the “Assay sensitivity compared with the Hapten I enzyme conjugate based assay” value is given as “significantly more sensitive”; the “I50 (pg/well)” value is 1,000 pg/well; the “I85 (mdl, pg/well)” value is 25 pg/well.

For the compound `Clc1cc2c(c(Cl)c1Cl)Oc1cc(Cl)c(Cl)c(Cl)c1O2` [1,2,3,6,7,8-HxCDD], in data set [1], the “TEF* (toxic equivalency factor)” value is reported as 0.1. Also, in data set [1] (setting [2]), the TEF is 0.1.

For the compound `O=C(O)CCCSc1cc(Cl)ccc1Cl` [Competitor E], in the data set with DD-3 antibody, the “Assay sensitivity compared with the Hapten I enzyme conjugate based assay” value was “significantly more sensitive”; the “I50 (pg/well)” value turned out to be 380 pg/well; the “I85 (mdl, pg/well)” value was determined as 15 pg/well.

For the compound `Clc1cc2c(oc3c(Cl)c(Cl)c(Cl)c(Cl)c32)c(Cl)c1Cl` [1,2,3,4,6,7,8-HpCDF], the “TEF* (toxic equivalency factor)” value in data set [1] is on record as 0.01. Besides, the TEF in data set [1] (setting [2]) was 0.01.

`Clc1cc2c(cc1Cl)Oc1c(Cl)c(Cl)c(Cl)c(Cl)c1O2` [1,2,3,4,7,8-HxCDD]: the “TEF* (toxic equivalency factor)” value in data set [1] was 0.1. For the same compound, the TEF in data set [1] (setting [2]) is on record as 0.1.

`Clc1cc2c(oc3c(Cl)c(Cl)c(Cl)cc32)c(Cl)c1Cl` [2,3,4,6,7,8-HxCDF]: in data set [1], the “TEF* (toxic equivalency factor)” value is reported as 0.1. The TEF in data set [1] (setting [2]) is 0.1.

Consider `Clc1cc(Cl)c2c(c1Cl)Oc1c(Cl)c(Cl)c(Cl)c(Cl)c1O2` [1,2,3,4,6,7,9-HpCDD], for which the “TEF* (toxic equivalency factor)” value in data set [1] is on record as 0.01. In addition, in data set [1] (setting [2]), the TEF was 0.01.

Turning to `Clc1c(Cl)c(Cl)c2c(oc3c(Cl)c(Cl)c(Cl)c(Cl)c32)c1Cl` [OCDF], the “TEF* (toxic equivalency factor)” value in data set [1] was 0.001. Besides, the TEF in data set [1] (setting [2]) is 0.001.

As for `Clc1cc2c(oc3cc(Cl)c(Cl)c(Cl)c32)c(Cl)c1Cl` [1,2,3,6,7,8-HxCDF], the “TEF* (toxic equivalency factor)” value in data set [1] is 0.1. The TEF in data set [1] (setting [2]) is 0.1.

Turning to `Clc1cc2oc3c(Cl)c(Cl)c(Cl)c(Cl)c3c2c(Cl)c1Cl` [1,2,3,4,7,8,9-HpCDF], the “TEF* (toxic equivalency factor)” value in data set [1] was 0.01. For the same compound, in data set [1] (setting [2]), the TEF is reported as 0.01.

Regarding `O=C(O)CCCC(=O)c1ccc(Cl)c(Cl)c1` [Competitor F], in the data set on DD-3 antibody, the “Assay sensitivity compared with the Hapten I enzyme conjugate based assay” value is listed as “significantly more sensitive”; the “I50 (pg/well)” value was found to be 230 pg/well; the “I85 (mdl, pg/well)” value was 13 pg/well.

As to `Clc1cc2c(c(Cl)c1Cl)Oc1c(cc(Cl)c(Cl)c1Cl)O2` [1,2,3,7,8,9-HxCDD], the “TEF* (toxic equivalency factor)” value in data set [1] is given as 0.1. The TEF in data set [1] (setting [2]) was 0.1.

For the compound `Clc1cc2c(c(Cl)c1Cl)Oc1c(Cl)c(Cl)c(Cl)c(Cl)c1O2` [1,2,3,4,6,7,8-heptachlorodibenzo-p-dioxin], the TEF in data set [1] (setting [2]) and in data set [1] (setting [3]) was 0.01 each time.

For the compound `O=C(O)CCCOc1ccc(Cl)c(Cl)c1` [Competitor D], in the data set on DD-3 antibody, the “Assay sensitivity compared with the Hapten I enzyme conjugate based assay” value is given as “significantly more sensitive”; the “I50 (pg/well)” value worked out at 380 pg/well; the “I85 (mdl, pg/well)” value was 15 pg/well.

As to `O=C(O)CCc1ccc(Cl)c(Cl)c1` [Competitor B], in the data set with DD-3 antibody, the “Assay sensitivity compared with the Hapten I enzyme conjugate based assay” value was “significantly more sensitive”; the “I50 (pg/well)” value was found to be 350 pg/well; the “I85 (mdl, pg/well)” value is reported as 20 pg/well.

Take `Clc1cc2oc3cc(Cl)c(Cl)c(Cl)c3c2cc1Cl` [1,2,3,7,8-PeCDF]: the “TEF* (toxic equivalency factor)” value in data set [1] is recorded as 0.05. Besides, the TEF in data set [1] (setting [2]) is 0.05.

`Clc1c(Cl)c(Cl)c2c(c1Cl)Oc1c(Cl)c(Cl)c(Cl)c(Cl)c1O2` [OCDD]: in data set [1], the “TEF* (toxic equivalency factor)” value is 0.001. Further, the TEF in data set [1] (setting [2]) is 0.001.

As for `Clc1cc2oc3c(Cl)c(Cl)c(Cl)c(Cl)c3c2cc1Cl` [1,2,3,4,7,8-HxCDF], the “TEF* (toxic equivalency factor)” value in data set [1] was 0.1. Besides, the TEF in data set [1] (setting [2]) was 0.1.

For `Clc1cc2c(cc1Cl)Oc1cc(Cl)c(Cl)cc1O2` [2,3,7,8-TCDD, 2,3,7,8-tetrachlorodibenzo-p-dioxin], the “TEF* (toxic equivalency factor)” value in data set [1] was 1. Moreover, the TEF in data set [1] (setting [2]) and in data set [1] (setting [3]) was 1.0 each time.

For the compound `Clc1cc2c(cc1Cl)Oc1c(cc(Cl)c(Cl)c1Cl)O2` [1,2,3,7,8-PeCDD], the “TEF* (toxic equivalency factor)” value in data set [1] is 0.5. The TEF in data set [1] (setting [2]) is given as 0.5.

For `O=C(O)CCCOc1ccc(Cl)cc1Cl` [Competitor C], in the data set with DD-3 antibody, the “Assay sensitivity compared with the Hapten I enzyme conjugate based assay” value is on record as “significantly more sensitive”; the “I50 (pg/well)” value came out at 230 pg/well; the “I85 (mdl, pg/well)” value was 13 pg/well.

For the compound `Clc1cc2oc3cc(Cl)c(Cl)cc3c2cc1Cl` [2,3,7,8-TCDF, 2,3,7,8-tetrachlorodibenzofuran], the “Factor more sensitive than DD-3 and Hapten I assay system” value in the data set with DD-3 antibody (analyte 2,3,7,8-tetrachlorodibenzofuran, Competitor F versus literature Hapten I assay (Stanker 1987)) is approximately 10. In addition, in the data set with DD-3 antibody (setting [4]), the I50 is recorded as 800 pg/well and the “I85 (mdl)” value is recorded as 80 pg/well. Moreover, the “TEF* (toxic equivalency factor)” value in data set [1] is reported as 0.1. Further, the TEF in data set [1] (setting [2]) is 0.1.

For `Clc1cc2oc3cc(Cl)c(Cl)c(Cl)c3c2c(Cl)c1Cl` [1,2,3,7,8,9-HxCDF], the “TEF* (toxic equivalency factor)” value in data set [1] is 0.1. For the same compound, the TEF in data set [1] (setting [2]) is 0.1.
